Laboratory results taken from US20220089646A1 (THE UNIVERSITY OF QUEENSLAND, priority 2019, published 2022).
*1 amine or outer side, *2 acyl side, *3 side chain or, on linkers, in order; H or OH if unused. Where a SMILES comes first, the peptide text is derived from it. Bridges are numbered along the chain shown (N, C = ends). [ ]: non-standard residue; d: D form. NHCH2CMe2S = CC(C)(CN[*:1])S[*:2]

Key:
[1] = target: T1, KOP (Homo sapiens, UniProt P41145); assay: cAMP assay with naloxone in HEK-KOP cells; format: cell-based; conditions: naloxone 100 μM/well; for Mean cAMP response (FIG. 14): HEK-KOP, naloxone assay, peptide at approximate IC80; for Naloxone reversal of cAMP inhibition through KOP: p<0.01
T1 sequence (P41145 whole entry): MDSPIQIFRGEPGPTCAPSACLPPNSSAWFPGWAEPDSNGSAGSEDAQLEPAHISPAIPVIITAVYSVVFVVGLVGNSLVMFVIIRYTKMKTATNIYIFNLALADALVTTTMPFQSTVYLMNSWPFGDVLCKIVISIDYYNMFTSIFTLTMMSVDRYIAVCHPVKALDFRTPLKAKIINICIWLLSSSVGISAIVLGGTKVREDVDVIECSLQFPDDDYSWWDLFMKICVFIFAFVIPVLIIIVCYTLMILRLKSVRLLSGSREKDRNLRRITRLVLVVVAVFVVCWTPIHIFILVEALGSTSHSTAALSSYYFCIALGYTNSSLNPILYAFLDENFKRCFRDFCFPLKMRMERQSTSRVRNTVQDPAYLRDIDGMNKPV
Description: The preparation of buffers, cAMP standard curve, bead solutions were carried out identically to the agonist assay.
Forskolin had been optimised at 50 μM/well. Thus, the 25 mM stocks were used to prepare 300 μL of 0.3 mM Forskolin. The concentration of Forskolin prepared was 6 times the required concentration in the well to account for further dilution in the well. Forskolin solution was then made from this and used to dilute the drug solutions.
Approximate IC80 values were used for DP-7-11 and DP-7-12 to determine the ability of naloxone to reverse agonist inhibitory effect.
The desired concentration of naloxone was 100 μM/well. Thus, 100 μL of 600 μM naloxone was made up from 100 mM stock. This was 6 times the desired in-well concentration to account for further dilution in the well by Forskolin, peptide, cells and acceptor bead solutions.
Stimulation buffer was added to the 0.3 mM Forskolin solution to prepare the Forskolin only treatment solution as the positive control. Stimulation buffer used as the negative control.
The DP series compounds were assayed as follows: The different cAMP standard solutions (3 μL/well) were plated in duplicate. Naloxone solution was then plated (1 μL/well) for each treatment (DP-7-11, DP-7-12, Forskolin only and stimulation buffer) in triplicate. In the same way, stimulation buffer was plated (1 μL/well) for the same number of wells. This made up two sets of wells, antagonist and non-antagonist. Following this, the acceptor bead and cell mixture (3 μL/well) was added to the treatment wells. The plates were then covered and centrifuged at 280 g for 30 seconds before incubation on an orbital shaker for 30 minutes at room temperature. The acceptor bead mixture (3 μL/well) was then added to the cAMP standard curve wells, whilst the drug mixed with Forskolin solutions (3 μL/well) were added to the respective treatment wells in triplicate. Again, the plates were centrifuged at 280 g for 30 seconds, then covered and incubated on the orbital shaker for another 30 minutes. Finally, the donor bead mixture (10 μL/well) was added to each well. This was incubated at room temperature overnight on the orbital shaker.
The Ensight® Multimode Plate Reader was used to quantify the fluorescence units of each plate. Before reading, each plate was centrifuged at 280 g for 30 seconds. Using GraphPad Prism7® Software, cAMP concentrations were determined from the fluorescence data by fit spline/LOWESS analysis. The cAMP standard curve was used for interpolation at this point. The cAMP concentrations were then normalized to the highest cAMP concentration recorded and analyzed by one-way ANOVA for multiple comparisons. This analysis was corrected for multiple comparisons using Bonferroni. […]

[2] = target: T2, trypsin (Bos taurus, UniProt P00760); assay: Trypsin stability; format: in vitro ADME
T2 sequence (P00760 24-246): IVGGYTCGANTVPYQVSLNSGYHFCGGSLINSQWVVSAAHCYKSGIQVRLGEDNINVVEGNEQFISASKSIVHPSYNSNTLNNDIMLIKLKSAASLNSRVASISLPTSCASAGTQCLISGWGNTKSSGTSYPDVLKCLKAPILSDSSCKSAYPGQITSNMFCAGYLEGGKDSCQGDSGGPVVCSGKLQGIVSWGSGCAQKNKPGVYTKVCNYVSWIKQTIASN
Description: Purified DP-7-11 (1 mg/mL) was dissolved in 0.1 M ammonium bicarbonate (NH4HCO3) buffer. To prepare a stock trypsin solution, 1 mg trypsin was dissolved in 50 mL of 0.1 M NH4HCO3 buffer. Equal volumes of the stock trypsin solution (62.5 μL) and DP-7-11 solution (62.5 μL) were incubated in 375 μL of 0.1M NH4HCO3 buffer in a 37° C. water bath. Aliquots of 100 μL were collected from this mixture at set time intervals of 0 min, up to 24 hours. Ice-cold acetonitrile containing 0.5% TFA was used to quench the reaction between DP-7-11 and trypsin at predetermined intervals, and just prior to HPLC or LC-MS analysis. The quenched samples were vortexed for 10 minutes followed by centrifugation at 12,000 rpm for a further 15 minutes. Supernatant was sampled and analysed using analytical RP-HPLC or LC-MS. Samples without trypsin acted as negative controls and were sampled at two intervals of 0 hour and 6 hours.
As used in this serum and trypsin stability discussion, the term ‘degraded completely’ relates to the relevant compound being completely absent when tested. In other words, the compound being tested is not observed when tested.
The serum and trypsin stability of DP-7-11 and DP-7-12 were tested (in some instances again) using LC-MS. The LC-MS utilized in this study was more sensitive than the LC-MS utilized in the above tests.

[3] = target: T1, KOP; assay: In vitro cAMP activity at KOP (Table 10); format: cell-based; conditions: cAMP inhibition, four-parameter regression, normalised to U50488H
Description: The CP series compounds were assayed as follows: The assay was performed using a 96 well ½ area plate. The different cAMP standard solutions (3 μL/well) were plated in duplicate. The different concentrations of drug (3 μL/well), and control solutions (3 μL/well) were plated in triplicate. Following this, the acceptor bead mixture (3 μL/well) was added to the respective sets—either cAMP standard curve or the treatment. This was covered and incubated on the orbital shaker for 60 minutes at 37° C. Then, the donor bead mixture (10 μL/well) was added to each well. This was incubated at room temperature overnight on the orbital shaker.
For DP-11-06 the assay was carried out in the same way as for the CP compounds except it was incubated for 30 mins at 37° C.
For the CP series compounds and DP-11-06, the Ensight® Multimode Plate Reader was used to quantify the fluorescence units of each plate. Before reading, each plate was centrifuged at 280 g for 30 seconds. Using GraphPad Prism7® Software, cAMP concentrations were determined by fit spline/LOWESS analysis. The cAMP standard curve was used for interpolation at this point. The cAMP concentrations were then normalized to the highest cAMP concentration recorded and analyzed by one-way ANOVA for multiple comparisons. The IC50 for each compound was then calculated using GraphPad Prism7® with non-linear regression analysis using four parameter curve fitting.
The results shown in Table 10 utilized rat plasma. • Note that DP-7-11 and CP5 represent the same compound, and DP-7-12 and CP6 are the same compound. In this regard, a different regression analysis method was adopted on the above cAMP experiments. Particularly, a new non-linear regression (four-parameter) was adopted to better account for hill slope, thereby improving the regression fit.

Row | SMILES | Mean cAMP response (FIG. 14) [1] [%] | Naloxone reversal of cAMP inhibition through KOP [1] | Trypsin: complete degradation within ([2]; 37° C.) | EC50 [3] [nM] | Incubation in trypsin: peptide remaining ([2]; at 30 min, more sensitive LC-MS) [% remaining at] | remaining at 0.5 h, 0.125 mg/mL ([2]; trypsin solution, at 30 min, more sensitive LC-MS, read-out: Incubation in trypsin: peptide remaining) [%]
1 | CC1(C)CNC(=O)C[C@@H](NC(=O)[C@@H](N)Cc2ccc(O)cc2)C(=O)NCC(=O)N[C@@H](Cc2ccccc2)C(=O)N[C@H](C(=O)N[C@@H](CCCNC(=N)N)C(=O)N[C@@H](CCCNC(=N)N)C(N)=O)CSS1 [DP-7-12, c(Tyr-D(Asp)-Gly-Phe-SSa-Arg-Arg)] (H-Y[dD]GFCRR-NH2; linker 2-5 via NHCH2CMe2S) | 52.40 | reversed by naloxone | within 30 min | 160 | – | –
2 | CC1(C)CNC(=O)C[C@H](C(=O)N[C@@H](CCCNC(=N)N)C(=O)N[C@@H](CCCNC(=N)N)C(N)=O)NC(=O)[C@H](Cc2ccccc2)NC(=O)CNC(=O)[C@@H](NC(=O)[C@@H](N)Cc2ccc(O)cc2)CSS1 [DP-7-11, c(Tyr-SSa-Gly-Phe-D(Asp)-Arg-Arg)] | 56.14 | reversed by naloxone | – | > 10000 | 25 | ~25
